Laboratory results reported in PMC9270327 (Communications Biology, 2022).
Structures can show the parent of a compound that is named as a salt. Where two headings read alike, the source gives them in different places.

How the values were obtained:
[1] = biological target: T1, recombinant human matriptase (Homo sapiens, UniProt Q9Y5Y6); assay: Enzyme inhibition assay with purified matriptase (Ki, dose-response); assay type: biochemical; conditions: for matriptase activity, Mean (Fig. 2b): normalized, 0 nM = 100
T1 construct: purchased R&D Systems (Minneapolis, MN, USA)
T1 sequence (Q9Y5Y6 1-855): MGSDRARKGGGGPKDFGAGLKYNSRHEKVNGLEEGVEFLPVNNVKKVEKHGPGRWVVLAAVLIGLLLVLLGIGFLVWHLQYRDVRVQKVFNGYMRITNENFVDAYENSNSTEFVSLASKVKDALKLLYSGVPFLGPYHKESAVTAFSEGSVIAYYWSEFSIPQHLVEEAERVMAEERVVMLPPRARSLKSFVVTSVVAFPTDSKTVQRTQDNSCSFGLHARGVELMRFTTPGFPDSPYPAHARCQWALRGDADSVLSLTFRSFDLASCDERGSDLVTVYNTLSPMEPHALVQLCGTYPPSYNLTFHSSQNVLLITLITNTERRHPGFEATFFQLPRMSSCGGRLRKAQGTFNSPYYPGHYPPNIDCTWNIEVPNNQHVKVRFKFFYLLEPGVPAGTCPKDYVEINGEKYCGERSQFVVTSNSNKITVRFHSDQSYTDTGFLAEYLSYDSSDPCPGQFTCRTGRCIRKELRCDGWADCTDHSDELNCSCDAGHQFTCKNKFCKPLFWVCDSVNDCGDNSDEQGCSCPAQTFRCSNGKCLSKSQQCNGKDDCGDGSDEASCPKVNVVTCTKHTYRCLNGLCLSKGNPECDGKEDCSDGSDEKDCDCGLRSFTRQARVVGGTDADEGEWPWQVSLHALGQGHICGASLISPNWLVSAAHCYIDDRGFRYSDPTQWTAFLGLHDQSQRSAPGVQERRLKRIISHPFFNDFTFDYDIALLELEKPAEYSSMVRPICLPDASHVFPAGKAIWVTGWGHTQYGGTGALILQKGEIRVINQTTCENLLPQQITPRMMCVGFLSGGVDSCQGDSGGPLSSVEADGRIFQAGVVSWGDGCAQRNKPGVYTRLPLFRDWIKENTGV

[2] = biological target: T2, recombinant human thrombin (Homo sapiens, UniProt P00734); assay: Enzyme inhibition assay with purified thrombin (Ki, dose-response); assay type: biochemical; conditions: normalized
T2 construct: purchased R&D Systems (Minneapolis, MN, USA)
Description: (§1) Recombinant human TMPRSS2 was purchased from Creative BioMart (New York, USA) or LSBio (Seattle, USA), factor Xa was obtained from Bio-Techne GmbH (Wiesbaden, Germany). Recombinant human thrombin and matriptase protein were purchased from R&D Systems (Minneapolis, MN, USA).

factor Xa = biological target: T3, factor Xa (Homo sapiens, UniProt P00742); assay: Enzyme inhibition assay with purified factor Xa (Ki, dose-response); assay type: biochemical; conditions: for factor Xa activity, Mean (Fig. 2d): normalized
T3 construct: purchased Bio-Techne GmbH (Wiesbaden, Germany)
T3 sequence (P00742 235-488 limits assumed): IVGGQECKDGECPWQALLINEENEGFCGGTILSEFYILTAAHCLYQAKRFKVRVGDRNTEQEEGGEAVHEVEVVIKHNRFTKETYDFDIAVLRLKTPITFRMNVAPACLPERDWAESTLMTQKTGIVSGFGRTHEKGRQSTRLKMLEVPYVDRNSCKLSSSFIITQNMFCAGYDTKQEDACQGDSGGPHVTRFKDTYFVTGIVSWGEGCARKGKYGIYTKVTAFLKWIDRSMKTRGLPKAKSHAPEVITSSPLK
T3 sequence (P00742 41-179 partner limits assumed): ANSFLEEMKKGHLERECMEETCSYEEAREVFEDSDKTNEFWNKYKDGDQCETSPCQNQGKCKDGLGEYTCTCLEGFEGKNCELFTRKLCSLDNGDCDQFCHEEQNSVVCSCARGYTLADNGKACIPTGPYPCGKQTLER
Description: as §1

[3] = system: lentiviral pseudoparticles carrying SARS-CoV-2 Alpha (B.1.1.7) spike, Caco-2 cells; assay type: cell-based; conditions: for SARS-CoV-2 spike driven entry, Mean (0 nM = 100): Fig. 5b
[4] = system: lentiviral pseudoparticles carrying SARS-CoV-2 Delta (B.1.617.2) spike, Caco-2 cells; assay type: cell-based; conditions: for SARS-CoV-2 spike driven entry, Mean (0 nM = 100): Fig. 5d
[5] = system: SARS-CoV-2 Alpha (B.1.1.7), Caco-2 cells; assay type: cell-based
TMPRSS2 = TMPRSS2 (Homo sapiens, UniProt O15393); assay: Plasma stability: residual TMPRSS2 inhibition after incubation in human plasma
Sequence of TMPRSS2 (O15393 whole entry): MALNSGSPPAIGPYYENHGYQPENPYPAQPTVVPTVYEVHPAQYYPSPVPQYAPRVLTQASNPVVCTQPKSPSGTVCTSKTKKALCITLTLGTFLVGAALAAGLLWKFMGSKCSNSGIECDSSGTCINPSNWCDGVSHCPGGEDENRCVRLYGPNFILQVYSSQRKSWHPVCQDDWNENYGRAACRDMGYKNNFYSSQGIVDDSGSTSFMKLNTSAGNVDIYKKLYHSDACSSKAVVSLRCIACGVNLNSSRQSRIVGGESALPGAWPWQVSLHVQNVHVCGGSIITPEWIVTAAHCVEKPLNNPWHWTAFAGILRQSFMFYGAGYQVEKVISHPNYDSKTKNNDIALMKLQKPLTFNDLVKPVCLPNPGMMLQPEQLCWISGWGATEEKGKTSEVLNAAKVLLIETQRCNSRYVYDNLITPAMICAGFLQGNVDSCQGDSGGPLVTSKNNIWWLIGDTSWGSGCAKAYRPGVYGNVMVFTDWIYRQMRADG
Description: The activity of the compounds against the recombinant human enzymes was determined in enzyme inhibition assays. […] The measurements were performed on a Tecan infinite® M1000 and the fluorescence intensity was measured by exciting the AMC fluorophore at 380 nm wavelength and recording emission at 460 nm wavelength. […] Fluorescence intensities and absorption were measured every 2 min for 2 h or as endpoint after 2 h. […] To determine the IC50 values, the concentration-response data were plotted with the program GraphPad prism version 8.4.2 (San Diego, California) and a nonlinear regression fit with the equation [Inhibitor] vs. normalized response was applied. The inhibitory constant Ki was calculated from the IC50 values using the Cheng–Prusoff equation (Ki = IC50/[S]/KM) for competitive reversible inhibitors[66].
The stability of the inhibitors was measured according to a modified procedure from ref. [67]. […] At indicated timepoints, 100 µL samples were taken and mixed with 200 µL of ethanol to precipitate proteins. […] The supernatant was aspirated and analyzed using analytical HPLC. The residual inhibitory constants Ki after incubation was assessed by mixing serial dilutions of the inhibitor with recombinant TMPRSS2 as described above.
Shown are the means ± SD of n=1 experiment performed in triplicates.

CN(C)C(=O)COC(=O)Cc1ccc(OC(=O)c2ccc(NC(=N)N)cc2)cc1 [CM, camostat mesylate, reference compound]
matriptase activity, Mean (Fig. 2b) ([1]; 0.05 nM): 100.491
matriptase activity, Mean (Fig. 2b) ([1]; 0.1 nM): 98.1997
matriptase activity, Mean (Fig. 2b) ([1]; 0.2 nM): 86.1702
matriptase activity, Mean (Fig. 2b) ([1]; 1 nM): 58.838
matriptase activity, Mean (Fig. 2b) ([1]; 10 nM): 4.828
matriptase activity, Mean (Fig. 2b) ([1]; 1000 nM): 0.2455
matriptase activity, Mean (Fig. 2b) ([1]; 50000 nM): 0.08183
matriptase activity, Mean (Fig. 2b) ([1]; 500000 nM): 0.1637
Ki ([1]; 30 min preincubation, substrate Boc-Gln-Ala-Arg-AMC): 0.6 nM
thrombin activity, Mean (Fig. 2c) ([2]; 0.01 nM): 98.2939
thrombin activity, Mean (Fig. 2c) ([2]; 0.02 nM, 0 nM = 100): 99.8688
thrombin activity, Mean (Fig. 2c) ([2]; 0.04 nM, 0 nM = 100): 100.525
thrombin activity, Mean (Fig. 2c) ([2]; 0.2 nM, 0 nM = 100): 103.675
thrombin activity, Mean (Fig. 2c) ([2]; 2 nM, 0 nM = 100): 103.806
thrombin activity, Mean (Fig. 2c) ([2]; 20 nM, 0 nM = 100): 105.906
thrombin activity, Mean (Fig. 2c) ([2]; 10000 nM, 0 nM = 100): 73.8845
thrombin activity, Mean (Fig. 2c) ([2]; 100000 nM, 0 nM = 100): 23.2283
factor Xa activity, Mean (Fig. 2d) (factor Xa; 0.04 nM, 0 nM = 100): 85.6127
factor Xa activity, Mean (Fig. 2d) (factor Xa; 0.2 nM, 0 nM = 100): 89.6222
factor Xa activity, Mean (Fig. 2d) (factor Xa; 2 nM, 0 nM = 100): 92.4525
factor Xa activity, Mean (Fig. 2d) (factor Xa; 20 nM, 0 nM = 100): 96.9338
factor Xa activity, Mean (Fig. 2d) (factor Xa; 200 nM, 0 nM = 100): 78.0652
factor Xa activity, Mean (Fig. 2d) (factor Xa; 1000 nM): 72.1688
factor Xa activity, Mean (Fig. 2d) (factor Xa; 10000 nM, 0 nM = 100): 33.4905
factor Xa activity, Mean (Fig. 2d) (factor Xa; 100000 nM, 0 nM = 100): 14.8585
Ki (factor Xa; 30 min preincubation, substrate Bz-Ile-Glu-Gly-Arg-pNA): 1790 nM
IC50 ([3]; Caco-2 cells, luciferase 2 days post transduction, read-out: IC50 pseudotyped lentivirus Alpha): 98.7 nM
SARS-CoV-2 spike driven entry, Mean (0 nM = 100) ([3]; compound 3.2 nM): 71.733
SARS-CoV-2 spike driven entry, Mean (0 nM = 100) ([3]; compound 16 nM): 72.519
SARS-CoV-2 spike driven entry, Mean (0 nM = 100) ([3]; compound 80 nM): 51.5305
SARS-CoV-2 spike driven entry, Mean (0 nM = 100) ([3]; compound 400 nM): 39.483
SARS-CoV-2 spike driven entry, Mean (0 nM = 100) ([3]; compound 2000 nM): 18.526
SARS-CoV-2 spike driven entry, Mean (0 nM = 100) ([3]; compound 10000 nM): 4.853
SARS-CoV-2 spike driven entry, Mean (0 nM = 100) ([3]; compound 50000 nM): 1.159
IC50 ([4]; Caco-2 cells, luciferase 2 days post transduction, read-out: IC50 pseudotyped lentivirus Delta): 85.5 nM
SARS-CoV-2 spike driven entry, Mean (0 nM = 100) ([4]; compound 3.2 nM): 83.3031
SARS-CoV-2 spike driven entry, Mean (0 nM = 100) ([4]; compound 16 nM): 73.1168
SARS-CoV-2 spike driven entry, Mean (0 nM = 100) ([4]; compound 80 nM): 52.0145
SARS-CoV-2 spike driven entry, Mean (0 nM = 100) ([4]; compound 400 nM): 29.5018
SARS-CoV-2 spike driven entry, Mean (0 nM = 100) ([4]; compound 2000 nM): 11.0315
SARS-CoV-2 spike driven entry, Mean (0 nM = 100) ([4]; compound 10000 nM): 3.058
SARS-CoV-2 spike driven entry, Mean (0 nM = 100) ([4]; compound 50000 nM): 0.6818
IC50 ([5]; read-out: IC50 SARS-CoV-2 Alpha): 16400 nM
IC50 ([5]; read-out: IC50 SARS-CoV-2 Alpha (text)): 16400 nM
TMPRSS2 activity, Mean (0 nM = 100) (TMPRSS2; inhibitor 0.0167 nM, 0 min in plasma): 112.439
TMPRSS2 activity, Mean (0 nM = 100) (TMPRSS2; inhibitor 0.0167 nM, 30 min in plasma): 99.4869
TMPRSS2 activity, Mean (0 nM = 100) (TMPRSS2; inhibitor 0.0167 nM, 60 min in plasma): 94.1158
TMPRSS2 activity, Mean (0 nM = 100) (TMPRSS2; inhibitor 0.0167 nM, 120 min in plasma): 100.839
TMPRSS2 activity, Mean (0 nM = 100) (TMPRSS2; inhibitor 0.0167 nM, 24 h in plasma): 102.049
TMPRSS2 activity, Mean (0 nM = 100) (TMPRSS2; inhibitor 0.0167 nM, 10 d in plasma): 98.7798
TMPRSS2 activity, Mean (0 nM = 100) (TMPRSS2; inhibitor 0.0167 nM, positive ctrl): 95.8208
TMPRSS2 activity, Mean (0 nM = 100) (TMPRSS2; inhibitor 0.167 nM, 0 min in plasma): 118.068
TMPRSS2 activity, Mean (0 nM = 100) (TMPRSS2; inhibitor 0.167 nM, 30 min in plasma): 99.3363
TMPRSS2 activity, Mean (0 nM = 100) (TMPRSS2; inhibitor 0.167 nM, 60 min in plasma): 90.9592
TMPRSS2 activity, Mean (0 nM = 100) (TMPRSS2; inhibitor 0.167 nM, 120 min in plasma): 99.9584
TMPRSS2 activity, Mean (0 nM = 100) (TMPRSS2; inhibitor 0.167 nM, 24 h in plasma): 103.994
TMPRSS2 activity, Mean (0 nM = 100) (TMPRSS2; inhibitor 0.167 nM, 10 d in plasma): 99.2067
TMPRSS2 activity, Mean (0 nM = 100) (TMPRSS2; inhibitor 0.167 nM, positive ctrl): 72.6812
TMPRSS2 activity, Mean (0 nM = 100) (TMPRSS2; inhibitor 1.665 nM, 0 min in plasma): 103.981
TMPRSS2 activity, Mean (0 nM = 100) (TMPRSS2; inhibitor 1.665 nM, 30 min in plasma): 95.5323
TMPRSS2 activity, Mean (0 nM = 100) (TMPRSS2; inhibitor 1.665 nM, 60 min in plasma): 85.541
TMPRSS2 activity, Mean (0 nM = 100) (TMPRSS2; inhibitor 1.665 nM, 120 min in plasma): 96.8319
TMPRSS2 activity, Mean (0 nM = 100) (TMPRSS2; inhibitor 1.665 nM, 24 h in plasma): 101.166
TMPRSS2 activity, Mean (0 nM = 100) (TMPRSS2; inhibitor 1.665 nM, 10 d in plasma): 96.8623
TMPRSS2 activity, Mean (0 nM = 100) (TMPRSS2; inhibitor 1.665 nM, positive ctrl): 21.364
TMPRSS2 activity, Mean (0 nM = 100) (TMPRSS2; inhibitor 16.65 nM, 0 min in plasma): 71.7511
TMPRSS2 activity, Mean (0 nM = 100) (TMPRSS2; inhibitor 16.65 nM, 30 min in plasma): 65.1615
TMPRSS2 activity, Mean (0 nM = 100) (TMPRSS2; inhibitor 16.65 nM, 60 min in plasma): 67.6129
TMPRSS2 activity, Mean (0 nM = 100) (TMPRSS2; inhibitor 16.65 nM, 120 min in plasma): 74.7383
TMPRSS2 activity, Mean (0 nM = 100) (TMPRSS2; inhibitor 16.65 nM, 24 h in plasma): 100.72
TMPRSS2 activity, Mean (0 nM = 100) (TMPRSS2; inhibitor 16.65 nM, 10 d in plasma): 95.3646
TMPRSS2 activity, Mean (0 nM = 100) (TMPRSS2; inhibitor 16.65 nM, positive ctrl): 5.9227
TMPRSS2 activity, Mean (0 nM = 100) (TMPRSS2; inhibitor 166.5 nM, 0 min in plasma): 5.478
TMPRSS2 activity, Mean (0 nM = 100) (TMPRSS2; inhibitor 166.5 nM, 30 min in plasma): 3.6809
TMPRSS2 activity, Mean (0 nM = 100) (TMPRSS2; inhibitor 166.5 nM, 60 min in plasma): 3.225
TMPRSS2 activity, Mean (0 nM = 100) (TMPRSS2; inhibitor 166.5 nM, 120 min in plasma): 7.418
TMPRSS2 activity, Mean (0 nM = 100) (TMPRSS2; inhibitor 166.5 nM, 24 h in plasma): 28.8196
TMPRSS2 activity, Mean (0 nM = 100) (TMPRSS2; inhibitor 166.5 nM, 10 d in plasma): 97.9296
TMPRSS2 activity, Mean (0 nM = 100) (TMPRSS2; inhibitor 166.5 nM, positive ctrl): 2.192
TMPRSS2 activity, Mean (0 nM = 100) (TMPRSS2; inhibitor 1665 nM, 0 min in plasma): 4.824
TMPRSS2 activity, Mean (0 nM = 100) (TMPRSS2; inhibitor 1665 nM, 30 min in plasma): 0.6431
TMPRSS2 activity, Mean (0 nM = 100) (TMPRSS2; inhibitor 1665 nM, 60 min in plasma): 1.811
TMPRSS2 activity, Mean (0 nM = 100) (TMPRSS2; inhibitor 1665 nM, 120 min in plasma): 6.253
TMPRSS2 activity, Mean (0 nM = 100) (TMPRSS2; inhibitor 1665 nM, 24 h in plasma): 5.605
TMPRSS2 activity, Mean (0 nM = 100) (TMPRSS2; inhibitor 1665 nM, 10 d in plasma): 88.1928
TMPRSS2 activity, Mean (0 nM = 100) (TMPRSS2; inhibitor 1665 nM, positive ctrl): 0.4038
